Source: US12391686B2, “Compounds and uses thereof” (Foghorn Therapeutics Inc., priority 2019, dated 2025)

What follows are molecules tested against T1, Nanoluciferase-BRD9 fusion protein (3×FLAG-NLuc-BRD9) in SYO-1 cells (Homo sapiens, UniProt Q9H8M2) (assay: SYO1 BRD9 NanoLuc Degradation Assay). Details: Table 6B; SYO-1 cells expressing 3×FLAG-NLuc-BRD9, 6 hours incubation, 1 μM top dose; read-out: SYO1 BRD9-NanoLuc degradation IC50.
T1 construct: expressed in transfected cells; host or cells: SYO-1
T1 sequence (Q9H8M2 1-597): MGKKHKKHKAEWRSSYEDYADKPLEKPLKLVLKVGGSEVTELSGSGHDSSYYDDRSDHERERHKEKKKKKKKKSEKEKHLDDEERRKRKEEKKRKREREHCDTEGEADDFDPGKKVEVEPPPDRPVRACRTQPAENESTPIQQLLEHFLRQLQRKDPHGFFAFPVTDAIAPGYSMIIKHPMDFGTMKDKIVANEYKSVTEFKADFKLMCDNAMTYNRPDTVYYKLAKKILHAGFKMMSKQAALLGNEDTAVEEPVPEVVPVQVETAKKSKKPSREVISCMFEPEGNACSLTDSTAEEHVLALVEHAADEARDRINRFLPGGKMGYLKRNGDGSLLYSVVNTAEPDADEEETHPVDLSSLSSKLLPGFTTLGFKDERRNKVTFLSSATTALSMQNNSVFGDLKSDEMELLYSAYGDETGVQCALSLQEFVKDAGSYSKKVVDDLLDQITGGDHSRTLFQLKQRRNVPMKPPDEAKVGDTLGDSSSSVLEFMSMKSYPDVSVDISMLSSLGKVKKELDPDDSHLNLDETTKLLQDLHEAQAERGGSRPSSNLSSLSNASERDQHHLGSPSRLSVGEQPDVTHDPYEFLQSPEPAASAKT
Type: cell-based
Experimental: Procedure: A stable SYO-1 cell line expressing 3×FLAG-NLuc-BRD9 was generated. On day 0 cells were seeded in 30 μL media into each well of 384-well cell culture plates. The seeding density was 8000 cells/well. On day 1, cells were treated with 30 nL DMSO or 30 nL of 3-fold serially DMSO-diluted compounds (10 points in duplicates with 1 μM as final top dose). Subsequently plates were incubated for 6 hours in a standard tissue culture incubator and equilibrated at room temperature for 15 minutes. Nanoluciferase activity was measured by adding 15 μL of freshly prepared Nano-Glo Luciferase Assay Reagent (Promega N1130), shaking the plates for 10 minutes and reading the bioluminescence using an EnVision reader.
Results: The Inhibition % was calculated using the following formula: % Inhibition=100×(LumHC−Lumsample)/(LumHC−LumLC). DMSO treated cells are employed as High Control (HC) and 1 μM of a known BRD9 degrader standard treated cells are employed as Low Control (LC).

DC50	Structure (SMILES)
< 10 nM	COc1cc(-c2cn(C)c(=O)c3cnc(N(C)C)cc23)cc(OC)c1CN1CC(S(=O)(=O)NCCN2CCN(c3ccc4c(c3)C(=O)N(C3CCC(=O)NC3=O)C4=O)CC2)C1 (centres unmarked) [Compound D32]
< 10 nM	COc1cc(-c2cn(C)c(=O)c3cnc(N(C)C)cc23)cc(OC)c1CN1CC2CN(C(=O)CCOCCOc3ccc4c(c3)C(=O)N(C3CCC(=O)NC3=O)C4=O)CCC21 (centres unmarked) [Compound D33]
< 10 nM	COc1cc(-c2cn(C)c(=O)c3cnc(N(C)C)cc23)cc(OC)c1CN(C)C12CC(C(=O)NCCCCCOc3cccc4c3C(=O)N(C3CCC(=O)NC3=O)C4=O)(C1)C2 (centres unmarked) [Compound D34]
< 10 nM	COc1cc(-c2cn(C)c(=O)c3cnc(N(C)C)cc23)cc(OC)c1CN(C)CC12CC(C(=O)NCCCCCNc3cccc4c3C(=O)N(C3CCC(=O)NC3=O)C4=O)(C1)C2 (centres unmarked) [Compound D35]
< 10 nM	COc1cc(-c2cn(C)c(=O)c3cnc(N(C)C)cc23)cc(OC)c1CN(C)CC12CC(C(=O)NCCCCCOc3cccc4c3C(=O)N(C3CCC(=O)NC3=O)C4=O)(C1)C2 (centres unmarked) [Compound D36]
< 10 nM	COc1cc(-c2cn(C)c(=O)c3cnc(N(C)C)cc23)cc(OC)c1CN1CC(S(=O)(=O)NCCOCCOCCNc2cccc3c2C(=O)N(C2CCC(=O)NC2=O)C3=O)C1 (centres unmarked) [Compound D37]
< 10 nM	COc1cc(-c2cn(C)c(=O)c3cnc(N(C)C)cc23)cc(OC)c1CN(C)CC12CC(C(=O)NCCCCCOc3ccc4c(c3)C(=O)N(C3CCC(=O)NC3=O)C4=O)(C1)C2 (centres unmarked) [Compound D38]
< 10 nM	COc1cc(-c2cn(C)c(=O)c3cnc(N(C)C)cc23)cc(OC)c1CN(C)CC12CC(C(=O)NCCCCCNc3ccc4c(c3)C(=O)N(C3CCC(=O)NC3=O)C4=O)(C1)C2 (centres unmarked) [Compound D39]
< 10 nM	COc1cc(-c2cn(C)c(=O)c3cnc(N(C)C)cc23)cc(OC)c1CN(C)C12CC(C(=O)NCCCCCOc3ccc4c(c3)C(=O)N(C3CCC(=O)NC3=O)C4=O)(C1)C2 (centres unmarked) [Compound D40]
< 10 nM	COc1cc(-c2cn(C)c(=O)c3cnc(N(C)C)cc23)cc(F)c1CN1CCC(CCN2CCN(c3ccc4c(c3)C(=O)N(C3CCC(=O)NC3=O)C4=O)CC2)CC1 (centres unmarked) [Compound D41]
< 10 nM	COc1cc(-c2cn(C)c(=O)c3cnc(N(C)C)cc23)cc(OC)c1CN1CC(CC(=O)N2CCC3(CC2)CC(Oc2ccc4c(c2)C(=O)N(C2CCC(=O)NC2=O)C4=O)C3)C1 (centres unmarked) [Compound D42]
≥ 1000 nM	COc1cc(-c2cn(C)c(=O)c3cnc(N(C)C)cc23)cc(OC)c1CN1CC(CCN2CCN(c3ccc4c(c3)C(=O)N(C3CCC(=O)NC3=O)C4=O)CC2)C1 (centres unmarked) [Compound D43]
10 to 100 nM	COc1cc(-c2cn(C)c(=O)c3cnc(N(C)C)cc23)cc(OC)c1CN1CC(CCCN2CCN(c3ccc4c(c3)C(=O)N(C3CCC(=O)NC3=O)C4=O)CC2)C1 (centres unmarked) [Compound D44]
100 to 1000 nM	COc1cc(-c2cn(C)c(=O)c3cnc(N(C)C)cc23)c2c(c1)N(CCCCCCCCOc1ccc3c(c1)C(=O)N(C1CCC(=O)NC1=O)C3=O)CC2 (centres unmarked) [Compound D45]
< 10 nM	COc1cc(-c2cn(C)c(=O)c3cnc(N(C)C)cc23)c2c(c1)N(CCCCCN1CCC3(CC1)CC(Oc1ccc4c(c1)C(=O)N(C1CCC(=O)NC1=O)C4=O)C3)CC2 (centres unmarked) [Compound D46]
10 to 100 nM	COc1cc(-c2cn(C)c(=O)c3cnc(N(C)C)cc23)c2c(c1)N(CCCCCCCCOc1cccc3c1C(=O)N(C1CCC(=O)NC1=O)C3=O)CC2 (centres unmarked) [Compound D47]
< 10 nM	COc1cc(-c2cn(C)c(=O)c3cnc(N(C)C)cc23)cnc1CN1CCC(CCN2CCN(c3ccc4c(c3)C(=O)N(C3CCC(=O)NC3=O)C4=O)CC2)CC1 (centres unmarked) [Compound D48]
< 10 nM	COc1cc(-c2cn(C)c(=O)c3cnc(N(C)C)cc23)cc(OC)c1CN1CC(CN2CC3(CCN(c4ccc5c(c4)C(=O)N(C4CCC(=O)NC4=O)C5=O)C3)C2)C1 (centres unmarked) [Compound D49]
< 10 nM	COc1cc(-c2cn(C)c(=O)c3cnc(N(C)C)cc23)cc(OC)c1CN1CC(CN2CCC3(CC2)CN(c2ccc4c(c2)C(=O)N(C2CCC(=O)NC2=O)C4=O)C3)C1 (centres unmarked) [Compound D50]
< 10 nM	COc1cc(-c2cn(C)c(=O)c3cnc(N(C)C)cc23)cc(OC)c1CN1CC(CN2CCC3(C2)CN(c2ccc4c(c2)C(=O)N(C2CCC(=O)NC2=O)C4=O)C3)C1 (centres unmarked) [Compound D51]
< 10 nM	COc1cc(-c2cn(C)c(=O)c3cnc(N(C)C)cc23)cc(OC)c1CN1CCC(N2CCN(c3ccc4c(c3)C(=O)N(C3CCC(=O)NC3=O)C4=O)CC2)CC1 (centres unmarked) [Compound D52]

DC50	Structure (SMILES)
< 10 nM	COc1cc(-c2cn(C)c(=O)c3cnc(N(C)C)cc23)cc(OC)c1CN1CCN(C2CCN(c3ccc4c(c3)C(=O)N(C3CCC(=O)NC3=O)C4=O)CC2)CC1 (centres unmarked) [Compound D53]
< 10 nM	COc1cc(-c2cn(C)c(=O)c3cnc(N(C)C)cc23)cc(OC)c1CN1CCC(CN2CCC3(CC2)CC(Oc2ccc4c(c2)C(=O)N(C2CCC(=O)NC2=O)C4=O)C3)CC1 (centres unmarked) [Compound D54]
< 10 nM	COc1cc(-c2cn(C)c(=O)c3cnc(N(C)C)cc23)cc(OC)c1CN1CCC(C(=O)N2CCC3(CC2)CC(Oc2ccc4c(c2)C(=O)N(C2CCC(=O)NC2=O)C4=O)C3)CC1 (centres unmarked) [Compound D55]
< 10 nM	COc1cc(-c2cn(C)c(=O)c3cnc(N(C)C)cc23)cc(OC)c1CN1CCC2(CC1)CC(N1CCN(c3ccc4c(c3)C(=O)N(C3CCC(=O)NC3=O)C4=O)CC1)C2 (centres unmarked) [Compound D56]
< 10 nM	COc1cc(-c2cn(C)c(=O)c3cnc(N(C)C)cc23)cc(OC)c1CN1CCC(CN2CCN(c3ccc4c(c3)C(=O)N(C3CCC(=O)NC3=O)C4=O)CC2)CC1 (centres unmarked) [Compound D57]
< 10 nM	COc1cc(-c2cn(C)c(=O)c3cnc(N(C)C)cc23)cc(OC)c1CN1CCC2(CC1)CC(Oc1ccc3c(c1)C(=O)N(C1CCC(=O)NC1=O)C3=O)C2 (centres unmarked) [Compound D58]
< 10 nM	COc1cc(-c2cn(C)c(=O)c3cnc(N(C)C)cc23)cc(OC)c1CN1CCC(CCN2Cc3cc4c(cc3C2)C(=O)N(C2CCC(=O)NC2=O)C4=O)CC1 (centres unmarked) [Compound D59]
< 10 nM	COc1cc(-c2cn(C)c(=O)c3cnc(N(C)C)cc23)cc(OC)c1CN1CCC(CN2Cc3cc4c(cc3C2)C(=O)N(C2CCC(=O)NC2=O)C4=O)CC1 (centres unmarked) [Compound D61]
< 10 nM	COc1cc(-c2cn(C)c(=O)c3cnc(N(C)C)cc23)cc(OC)c1CN1CCC(CCCN2Cc3cc4c(cc3C2)C(=O)N(C2CCC(=O)NC2=O)C4=O)CC1 (centres unmarked) [Compound D62]
< 10 nM	COc1cc(-c2cn(C)c(=O)c3cnc(N(C)C)cc23)cc(OC)c1CN1CC2(CC(N3Cc4cc5c(cc4C3)C(=O)N(C3CCC(=O)NC3=O)C5=O)C2)C1 (centres unmarked) [Compound D63]
100 to 1000 nM	COc1cc(-c2cn(C)c(=O)c3cnc(N(C)C)cc23)cc(OC)c1CN1CC2(CCC(N3Cc4cc5c(cc4C3)C(=O)N(C3CCC(=O)NC3=O)C5=O)CC2)C1 (centres unmarked) [Compound D64]
< 10 nM	COc1cc(-c2cn(C)c(=O)c3cnc(N(C)C)cc23)cc(OC)c1CN1CCC2(CC1)CCN(CC#Cc1ccc3c(c1)C(=O)N(C1CCC(=O)NC1=O)C3=O)C2 (centres unmarked) [Compound D65]
< 10 nM	COc1cc(-c2cn(C)c(=O)c3cnc(N(C)C)cc23)cc(OC)c1CN1CC(C(=O)N2CC3(CCN(c4ccc5c(c4)C(=O)N(C4CCC(=O)NC4=O)C5=O)C3)C2)C1 (centres unmarked) [Compound D66]
< 10 nM	COc1cc(-c2cn(C)c(=O)c3cnc(N(C)C)cc23)cc(OC)c1CN1CC(CN2CCC3(CC2)CC(Oc2ccc4c(c2)C(=O)N(C2CCC(=O)NC2=O)C4=O)C3)C1 (centres unmarked) [Compound D67]
< 10 nM	COc1cc(-c2cn(C)c(=O)c3cnc(N(C)C)cc23)cc(OC)c1CN1CCC2(CC1)CN(c1ccc3c(c1)C(=O)N(C1CCC(=O)NC1=O)C3=O)C2 (centres unmarked) [Compound D68]
< 10 nM	COc1cc(-c2cn(C)c(=O)c3cnc(N(C)C)cc23)cc(OC)c1CN1CC(N2CCN(c3ccc4c(c3)C(=O)N(C3CCC(=O)NC3=O)C4=O)CC2)C1 (centres unmarked) [Compound D69]
< 10 nM	COc1cc(-c2cn(C)c(=O)c3cnc(N(C)C)cc23)cc(OC)c1CN1CCN(c2ccc3c(c2)C(=O)N(C2CCC(=O)NC2=O)C3=O)CC1 (centres unmarked) [Compound D70]
< 10 nM	COc1cc(-c2cn(C)c(=O)c3cnc(N(C)C)cc23)cc(OC)c1CN1CCN(C(C)COc2cccc3c2C(=O)N(C2CCC(=O)NC2=O)C3=O)CC1 (centres unmarked) [Compound D71]
< 10 nM	COc1cc(-c2cn(C)c(=O)c3cnc(N(C)C)cc23)cc(OC)c1CN1CC2(C1)CN(C(C)(C)C#Cc1ccc3c(c1)C(=O)N(C1CCC(=O)NC1=O)C3=O)C2 (centres unmarked) [Compound D72]
< 10 nM	COc1cc(-c2cn(C)c(=O)c3cnc(N(C)C)cc23)cc(OC)c1CN1CC2(CCN(C(C)(C)C#Cc3ccc4c(c3)C(=O)N(C3CCC(=O)NC3=O)C4=O)CC2)C1 (centres unmarked) [Compound D73]
